# Test results: patent US20110044991A1, “METHODS AND COMPOSITIONS FOR TREATING LYMPHOMA AND MYELOMA” (IRM LLC, priority 2006, published 2011)
# Columns and labels:
# [1] = test system: lymphoma cells (Ly9)
# Description: D: injection of 1 Mio luciferased lymphoma cells in C57B16 mice.
# Immunohistochemistry: Single colour DAB-immunoperoxidase staining was performed as described. Antibodies were obtained from Santa Cruz Biotechnologies (for Shh antibody, N-19), NeoMarkers (for Ki67 antibody) and Promega (for PARP antibody).
# Mouse experiments: Black6 mice between 6 and 8 weeks of age were injected with 1 Mio luciferased lymphoma cells. […] Bioluminescence was measured with injection of […].
# We next wished to determine the importance of Hh signalling in established lymphomas.
# [2] = test system: Myc-Ly6 cells overexpressing Smo, Smo535, Smo562, Gli1 or Fused; experiment: Luciferase assay with lymphoma cells overexpressing Hh pathway members on stromal layer; format: cell-based, mouse; conditions: for IC50: Mus musculus, 48 h
# Description: For Shh pathway inhibition on stroma, 6200 stroma cells were seeded per 96-well. After 24 hours 20,000 luciferased lymphoma cells were seeded on the stroma cells and 2 hours later compound or DMSO was added. Luciferase assay was performed with Bright-glow reagent as described. To generate cells overexpressing Hh pathway members, lymphoma cells were infected with Smo, Smo 535, Smo 562, Gli1 and Fused-pMSCV IRES GFP constructs and then sorted for GFP positive cells.
# [3] = test system: Eμ-Myc lymphoma cells; experiment: Shh-induced proliferation of lymphoma cells without stromal layer, Alamar Blue assay; format: cell-based, mouse; conditions: Shh 10 μM over 48 h; 5E1 10 μg/ml, cyclopamine 5 μM
# Description: Luminescence was measured after 0 h, 24 h and 48 h after seeding of 2×10E4 luciferased lymphoma cells on the stroma cells; and F: RT-PCR analysis of transcripts from Hh pathway members and targets in spleen lymphocytes and different lymphoma cell lines.
# Cell culture experiments: Lymphoma cells were infected with a retrovirus containing a pMSCV IRES puro-luc sequence and selected for 7 days with puromycin on puromycin-resistant Cdkn2a−/− stroma. […] Both were dissolved as x 1,000 stocks in DMSO. SCF was obtained from RDI, and all other cytokines were obtained from R&D systems. 5E1 anti-ShhN monoclonal antibody was obtained from the developmental hybridoma bank and was used at a concentration of 10 μg/ml. For cytokine stimulation and Shh inhibition in supernatant lymphoma cells were seeded into 96-well plates at a density of 20,000 cells per well and mitochondrial activity of viable cells was measured with an Alamar Blue Assay as described.
# [4] = 50 mg/kg twice a day for 3 days, vs control group
structure (smiles),measurement,setting,value
CC1=C2C[C@H]3[C@@H](CC=C4C[C@@H](O)CC[C@@]43C)[C@@H]2CC[C@]12O[C@@H]1C[C@H](C)CN[C@H]1[C@H]2C [cyclopamine],infiltration of the spleen,[1]; [4],markedly decreased
same,lymphoma mass in lymph nodes and other organs,[1]; [4],reduced lymphoma mass
same,PARP staining of spleen,[1]; after 3 days of treatment,apoptosis induction
same,histopathology of spleens (H&E),[1]; after 3 days of treatment,reduction of lymphoma cells in the spleen
same,Ki67 staining of spleen,"[1]; after 3 days of treatment, compared to vehicle group",strong decrease of high proliferative cells
same,decrease of spleen weight,"[1]; three-day treatment, compared to vehicle control group",~50%
same,IC50,[2]; cyclopamine sensitive lymphoma cell lines without overexpression,1 µM
same,IC50,[2]; overexpression of Fused,> 10 µM
same,IC50,[2]; overexpression of Gli1,> 10 µM
same,IC50,[2]; overexpression of Smo A562G,4.5 µM
same,IC50,[2]; overexpression of Smo W535L,3.5 µM
same,IC50,[2]; overexpression of Smo wt,3 µM
same,apoptosis induction by cyclopamine,[2]; overexpression of Fused,nearly complete inhibition of apoptosis induction
same,response of Myc-Ly6 to cyclopamine treatment,[2]; overexpression of Gli1,partial resistance
same,inhibition of Shh-induced proliferation,[3],inhibited
